From ChEMBL document CHEMBL3045614, “Antifeedant activity of vicolides from Pentanema indicum” (1999)

Key:
Assay type in all cases: functional
Olepa ricini [1] = assay: Antifeedant activity against moulted fifth larval stage of Olepa ricini infested on castor leaves assessed as feeding deterrence index at 200 ppm by leaf disk assay relative to control
Euproctis fraterna [2] = assay: Antifeedant activity against moulted fifth larval stage of Euproctis fraterna infested castor leaves assessed as feeding deterrence index at 200 ppm by leaf disk assay relative to control
Olepa ricini [3] = assay: Antifeedant activity against moulted fifth larval stage of Olepa ricini infested on castor leaves assessed as feeding deterrence index at 2000 ppm by leaf disk assay relative to control
Euproctis fraterna [4] = assay: Antifeedant activity against moulted fifth larval stage of Euproctis fraterna infested castor leaves assessed as feeding deterrence index at 2000 ppm by leaf disk assay relative to control
Euproctis fraterna [5] = assay: Antifeedant activity against moulted fifth larval stage of Euproctis fraterna infested castor leaves assessed as feeding deterrence index at 20 ppm by leaf disk assay relative to control
Olepa ricini [6] = assay: Antifeedant activity against moulted fifth larval stage of Olepa ricini infested on castor leaves assessed as feeding deterrence index at 2 ppm by leaf disk assay relative to control
Euproctis fraterna [7] = assay: Antifeedant activity against moulted fifth larval stage of Euproctis fraterna infested castor leaves assessed as feeding deterrence index at 2 ppm by leaf disk assay relative to control
Olepa ricini [8] = assay: Antifeedant activity against moulted fifth larval stage of Olepa ricini infested on castor leaves assessed as feeding deterrence index at 20 ppm by leaf disk assay relative to control
Euproctis fraterna [9] = assay: Antifeedant activity against moulted fifth larval stage of Euproctis fraterna infested castor leaves assessed as feeding deterrence index at 0.2 ppm by leaf disk assay relative to control
Olepa ricini [10] = assay: Antifeedant activity against moulted fifth larval stage of Olepa ricini infested on castor leaves assessed as feeding deterrence index at 0.2 ppm by leaf disk assay relative to control

C=C1C(=O)O[C@H]2[C@H]1[C@@H](O)[C@H](OC(=O)/C(C)=C\C)[C@H](C)[C@@H]1C(=O)C=C(C)[C@H]21 [VICOLIDE A]
FDI (Olepa ricini [1]): 29.66% | FDI (Euproctis fraterna [2]): 15.33% | FDI (Olepa ricini [3]): 42.86% | FDI (Euproctis fraterna [4]): 15.06% | FDI (Euproctis fraterna [5]): 15.33% | FDI (Olepa ricini [6]): 13.35% | FDI (Euproctis fraterna [7]): 8.99% | FDI (Olepa ricini [8]): 22.28% | FDI (Euproctis fraterna [9]): 8.43% | FDI (Olepa ricini [10]): 6.17%

C=C1C(=O)O[C@@H]2C/C(C)=C\C(=O)C[C@@H](C)[C@@H](OC(=O)/C(C)=C\C)[C@H](O)[C@@H]12 [VICOLIDE B]
FDI (Olepa ricini [1]): 40.93% | FDI (Euproctis fraterna [2]): 22.54% | FDI (Olepa ricini [3]): 48.68% | FDI (Euproctis fraterna [4]): 57.03% | FDI (Euproctis fraterna [5]): 20.28% | FDI (Olepa ricini [6]): 21.06% | FDI (Euproctis fraterna [7]): 13.98% | FDI (Olepa ricini [8]): 24.36% | FDI (Euproctis fraterna [9]): 12.17% | FDI (Olepa ricini [10]): 12.83%

C=C1C(=O)O[C@H]2[C@H]1[C@@H](OC(=O)[C@@H](C)CC)[C@H](OC(C)=O)[C@H](C)C[C@@H](O)[C@H]1O[C@@]1(C)[C@@H]2O [VICOLIDE C]
FDI (Olepa ricini [1]): 30.59% | FDI (Euproctis fraterna [2]): 26.76% | FDI (Olepa ricini [3]): 38.26% | FDI (Euproctis fraterna [4]): 26.56% | FDI (Euproctis fraterna [5]): 22.37% | FDI (Olepa ricini [6]): 9.61% | FDI (Euproctis fraterna [7]): 18.6% | FDI (Olepa ricini [8]): 17.74% | FDI (Euproctis fraterna [9]): 13.98% | FDI (Olepa ricini [10]): 4.44%

C=C1C(=O)O[C@@H]2C/C(C)=C\C(=O)C[C@@H](C)[C@@H](OC(=O)[C@]3(C)O[C@@H]3C)[C@H](O)[C@@H]12 [VICOLIDE D]
FDI (Olepa ricini [1]): 40.93% | FDI (Euproctis fraterna [2]): 20.46% | FDI (Olepa ricini [3]): 46.88% | FDI (Euproctis fraterna [4]): 35.68% | FDI (Euproctis fraterna [5]): 15.37% | FDI (Olepa ricini [6]): 17.74% | FDI (Euproctis fraterna [7]): 14.44% | FDI (Olepa ricini [8]): 27.62% | FDI (Euproctis fraterna [9]): 10.99% | FDI (Olepa ricini [10]): 10.61%
